In patent US5707821A, “Identification of phospholipase A2 inhibitors in Aβ peptide-mediated neurodegenerative disease” (priority 1995, dated 1998):

What was measured:
[1] = test system: IL-1β release by cultured human cortical microglia; assay: IL-1β release (ELISA) from Aβ1-40-stimulated human microglia; format: cell-based
Procedure: (§1) Cultures of human cortical or hippocampal astrocytes and microglia were prepared using a modification of the procedure described for cortical neurons. Cortical tissue from fetuses of 16 to 20 weeks of gestation was washed 3 times in Ca^2+ /Mg^2+ free Hanks balanced salt solution (CMF HBSS) and then dissociated by repeated pipetting. The solution was brought to a final volume of 80 ml CMF HBSS for approximately 10 ml of tissue. DNase (Sigma) was added to a final concentration of 0.05 mg/ml. 20 ml of the solution was passed through one 100 μm nylon cell strained (Falcon). The cells were then centrifuged for 5 minutes at 200×G in an IEC Clinical Centrifuge and resuspended in a trypsin/EDTA solution (0.05% trypsin+0.53 mM EDTA in HBSS; Gibco) and incubated for 20 minutes at 37°C. (10 ml of trypsin was added per 2-3 ml of tissue). The trypsin was then inactivated by adding (MEM/FBS): Modified Eagle's Medium (MEM) containing 1% glucose, 1 mM sodium pyruvate, 1 mM glutamine, and supplemented with 10% fetal bovine serum (JRH). After adding a final concentration of 0.05 mg/ml DNase the cells were resuspended and then pelleted by centrifugation and resuspended in MEM/FBS. 1.6×10^8 cells were seeded in a T-150 tissue culture flask coated with polyethyleneimine (PEI). (10% PEI (Sigma) was diluted 1:10 in H2 O, filtered through a […] unit and then diluted into 150 mM sodium borate pH 8.5 at 1:100. The flasks were coated overnight at room temperature, washed two times in PBS and coated with 20 ml/flask of MEM/FBS at 37° C. for at least one hour prior to plating cells.) Cultures were maintained in a H2 O-saturated incubator with an atmosphere of 95% air/5% CO2 at 37° C. The culture medium was changed one and four days after plating and the cultures were then left undisturbed for at least one week. After approximately two weeks in vitro, the flasks were gently shaken and floating microglia were collected and centrifuged for 5 minutes at 200×G in an IEC Clinical Centrifuge. The microglia were reseeded in 96 well tissue culture plates at a density of 5,000-40,000 cells/well in 125 μl in MEM/FBS. Astrocyte cultures were prepared by multiple passaging of the established mixed brain cell cultures. Each T-150 was incubated for 3-4 minutes at 37°C. with a trypsin/EDTA solution (see above). The trypsin was then inactivated by adding MEM/FBS. The cells were triturated and then pelleted by centrifugation and resuspended in MEM/FBS. The cells from one T-150 were seeded at a 1:30 to 1:5 dilution in T-150's not coated. Just prior to confluency the cells were repassaged by trypsinization as described above. This process was repeated until the cultures were >98% pure astrocytes.
(§2) Cultured microglial cells were treated with 50 μM of Aβ1-40 or vehicle only (Control). The levels of IL-1β, IL-6, and TNF-α released into the culture medium were determined by ELISA assay (R&D Systems) according to manufacturer's instructions.
(§3) The effect of two benzenesulfonamide inhibitors of PLA2 (European Patent Application 468 054) were examined on the activation of microglial cells by Aβ1-40 as in Example 1.
(§4) The effects of the benzenesulfonamide PLA2 inhibitor AN20606 and the selective cytosolic PLA2 inhibitor arachidonyl trifluoromethyl ketone (AN20579) were examined in cultured human cortical microglia for their selectivity for inhibiting microglia activation mediated by amyloid-βpeptide and lipopolysaccharides (LPS). LPS are a major constituent of the cell wall of gama-negative bacteria and are extensively used for generating inflammatory responses in cultured cells and in vivo.

[2] = test system: TNF-α release by cultured human cortical microglia; assay: TNF-α release (ELISA) from Aβ1-40-stimulated human microglia; format: cell-based
Procedure: as §1, §2, §3, §4

[3] = test system: IL-1β release by cultured human cortical microglia; assay: IL-1 release from LPS-stimulated human cortical microglia; format: cell-based
Procedure: as §1, §4

[4] = test system: TNFα release by cultured human cortical microglia; assay: TNF release from LPS-stimulated human cortical microglia; format: cell-based
Procedure: as §1, §4

[5] = test system: human cortical neurons; assay: Aβ neurotoxicity in human cortical neurons (alamarBlue), 2 h pretreatment with inhibitor; format: cell-based; conditions: for Emax: Homo sapiens, Cortical neurone, 72 h, read-out: Max Inh
Procedure: (§5) Cultures of human cortical or hippocampal neurons were prepared using a modification of the procedure described in P. Seubert et al. (1992), Nature 359:325-327. Cortical or hippocampal tissue was dissociated by incubation in a trypsin/EDTA solution (0.05% trypsin +0.53 mM EDTA in HBSS; Gibco) for 20 minutes at 37° C. The trypsin was then inactivated by resuspending the cells in serum-containing medium (MEM/FBS): Modified Eagle's Medium (MEM) containing 1% glucose, 1 mM sodium pyruvate, 1 mM glutamine, and supplemented with 10% fetal bovine serum (Gibco). Cells were then pelleted by centrifugation and resuspended in a chemically-defined medium (MEM/B27): MEM containing B27 supplement (Gibco) in place of FBS. Polyethyleneimine (PEI)-coated 6.4-mm (96-well) dishes were rinsed once with MEM/FBS, and then seeded at 0.75-1.25×10^5 cells per well in 0.1 ml MEM/B27. Cultures were maintained in a H2 O-saturated incubator with an atmosphere of 95% air/5% CO2 at 37° C. The culture medium was exchanged twice weekly.
(§6) Amyloid-β (Aβ) stock solutions were prepared as 1 mM stocks in sterile ddH2 O immediately prior to addition to cultures. Rat cortical neurons were exposed to Aβ by removing the culture medium and replacing it with DMEM/N2 or DMEM/B27 containing Aβ1-40. Human cortical neurons were exposed to Aβ by removing the culture medium and replacing it with MEM, MEM/N2, or MEM/B27 containing Aβ1-40. Cultures were maintained for 2-4 days before neuronal survival was quantified using alamarBlue™.
(§7) The alamarBlue™ assay incorporated a proprietary fluorometric/colorimetric metabolic indicator (Alamar Biosciences, Inc.). Viable cells convert alamarBlue™ from an oxidized (non-fluorescent, blue) form to a reduced (fluorescent, red) form. Assays were performed by replacing the culture media with a 10% alamarBlue™ solution in DMEM (rat cortical cultures) or MEM (human cortical cultures). Reduction of alamarBlue™ was determined spectrofluorometrically using a Millipore Cytofluor 2350 Scanner (excitation, […]; emission, 590 nm) and CytoCalc™ software (Millipore Corporation).
The effect of pretreating human cortical neuron cultures with the benzenesulfonamide PLA2 inhibitors and arachidonyl trifluoromethyl ketone prior to exposure to a neurotoxic concentration of Aβ1-40 was determined.
(§8) Human cortical neurons were treated with 50 μM Aβ1-40 and various inhibitors of PLA2. Compounds were added 2 hours prior to Aβ1-40 treatment at concentrations of 390 nM to 100 μM, and were then re-added at the time of Aβ1-40 treatment. Compounds were also added in an identical manner to neuronal cultures in the absence of Aβ1-40. Neuronal survival was determined after 3 days of treatment by alamarBlue®. IC50 is the dose of compound that inhibited Aβ-mediated neurotoxicity by 50%. […] Data represents the mean ± SD (n=3). ND, not detected at the concentration range used.

[6] = test system: Ca^+2 -independent PLA2; conditions: Ackermann et al. (1995); cited from earlier work
[7] = test system: cPLA2; conditions: Street et al. (1993); cited from earlier work
[8] = test system: human cortical neurons; assay: Aβ neurotoxicity / survival of human cortical neurons (alamarBlue), compound added at time of Aβ1-40; format: cell-based; conditions: for Max Inh: 50 μM Aβ1-40, compound 390 nM to 100 μM added at time of Aβ, 3 days, n=3
Procedure: as §5, §6, §7
The effect of the two benzenesulfonamide inhibitors of PLA2 in Example 2 were examined to determine the dose-dependence of their effect on neuronal survival in human cortical neuron cultures exposed to 0 μM, 25μM, or 50 μM of Aβ1-40 and varying doses of the benzenesulfonamide.
(§9) Human cortical neurons were treated with 50 μM Aβ1-40 and various inhibitors of PLA2 or PLC. Compounds were added at the time of Aβ1-40 treatment at concentrations 390 nM to 100 μM. Compounds were also added to neuronal cultures in the absence of Aβ1-40. Neuronal survival was determined after 3 days of treatment by alamarBlue®. IC50 is the dose of compound that inhibited Aβ-mediated neurotoxicity by 50%. […] Data represents the mean ± SD (n=3). ND, not detected at the concentration range used.

[9] = Compound toxicity to human cortical neurons in absence of Aβ1-40 (alamarBlue, 3 days); format: cell-based; conditions: human, cortical neurons
Procedure: as §5, §7, §9

[10] = test system: human cortical neurons; assay: as above; format: cell-based
Procedure: as §5, §7, §9

[11] = test system: PLC (phosphatidyl choline-phospholipase C); conditions: literature; cited from earlier work
[12] = Compound toxicity to human cortical neurons in absence of Aβ1-40, added as in pretreatment protocol; format: cell-based; conditions: human, cortical neurons, no Aβ1-40, 3 days, n=3, ND = not detected at the concentration range used, read-out: TD50 (concentration giving 50% loss of neuronal survival)
Procedure: as §5, §7, §8

[13] = test system: human cortical neurons; assay: as above; format: cell-based; conditions: no Aβ1-40, 3 days, n=3
Procedure: as §5, §7, §8

[14] = test system: PLA2; conditions: literature; cited from earlier work
[15] = test system: AD patients; conditions: selected group of five AD patients; cited from earlier work
[16] = 50 μM Aβ1-40, inhibitor 20 μM where present
[17] = 10 ng/ml LPS, inhibitor 20 μM where present

## CCCCC/C=C\C/C=C\C/C=C\C/C=C\CCCC(=O)C(F)(F)F [AACOCF3, arachidonyl trifluoromethyl ketone]
[1]; [16]
  IL-1 Released: 36 ± 7.2 pg/mL
[1]; Aβ1-40 versus LPS stimulation
  Aβ1-40-mediated IL-1β release, selectivity versus LPS (in words): selectively inhibited
[1]; Homo sapiens, Microglia, 50 μM Aβ1-40 + 20 μM inhibitor, read-out: IL-1 Released, percent in parentheses (relative to Aβ1-40 alone)
  activity at 20 µM: 13%
[2]; [16]
  TNF Released: 54.8 ± 9.4 pg/mL
[2]; Aβ1-40 versus LPS stimulation
  Aβ1-40-mediated TNFα release, selectivity versus LPS (in words): selectively inhibited
[2]; Homo sapiens, Microglia, 50 μM Aβ1-40 + 20 μM inhibitor, read-out: TNF Released, percent in parentheses (relative to Aβ1-40 alone)
  activity at 20 µM: 52%
[3]; [17]
  IL-1 Released: 51 ± 6.4 pg/mL
[3]; Homo sapiens, Microglia, 10 ng/ml LPS + 20 μM inhibitor, read-out: IL-1 Released, percent in parentheses (relative to LPS alone)
  activity at 20 µM: 225%
[3]; LPS stimulation
  LPS-mediated cytokine release, IL-1 (in words): actually enhanced
[4]; [17]
  TNF Released: 785 ± 50 pg/mL
[4]; Homo sapiens, Microglia, 10 ng/ml LPS + 20 μM inhibitor, read-out: TNF Released, percent in parentheses (relative to LPS alone)
  activity at 20 µM: 161%
[4]; LPS stimulation
  LPS-mediated cytokine release, TNF (in words): actually enhanced
[5]; pretreatment two hours, three days, FIG. 6
  neuronal death resulting from Aβ1-40 exposure (in words): substantially decreased neuronal death
[6]
  inhibition of Ca^+2 -independent PLA2 activity: capable of inhibiting
[7]
  inhibition of cPLA2: capable of inhibiting

## S=C(S)OC1CC2CC1C1CCCC21 (stereo not shown) [AN20602, potassium 8(9)-tricyclo[5.2.1.0^2,6]decyl xanthate]
[8]
  Max Inh: 25%
[8]; Example 5, FIG. 5, three days
  enhancing neuronal survival after exposure to Aβ (in words): relatively ineffective in enhancing neuronal survival
[9]
  CC50 at 72 h: 35 µM
[10]; human, 4320 min
  TD10 (concentration giving 10% loss of neuronal survival): 13 µM
[11]
  inhibition of PLC: PLC inhibitor

## CC1=C(CC/C(C)=C/CCC2=CC[C@H](C3=CC(=O)O[C@H]3O)O[C@H]2O)C(C)(C)CCC1 [Manoalide]
[5]
  Emax: 49%
[12]
  CC50 at 72 h: 10 µM
[13]
  TD10 (concentration giving 10% loss of neuronal survival): 8 µM

## COc1ccc2c(c1)CC[C@@H]1[C@@H]2CC[C@]2(C)[C@@H](NCCCCCCN3C(=O)C=CC3=O)CC[C@@H]12 [U73122, 1-[6-[[(17β)-3-methoxyestra-1,3,5(10)-trien-17-yl]amino]hexyl]-1H-pyrrole-2,5-dione]
[8]
  Max Inh: 66%
[8]; Homo sapiens, Cortical neurone, 72 h, read-out: IC50 (dose that inhibited Aβ-mediated neurotoxicity by 50%)
  IC50: 9 µM
[9]; no Aβ1-40, 3 days, 390 nM to 100 μM, n=3, ND = not detected at the concentration range used, read-out: TD50 (concentration giving 50% loss of neuronal survival)
  CC50 at 72 h: 16 µM
[10]; no Aβ1-40, 3 days, 390 nM to 100 μM, n=3
  TD10 (concentration giving 10% loss of neuronal survival): 11 µM
[14]
  inhibition of PLA2: inhibits both PLA2 and PLC
[11]
  inhibition of PLC: inhibits both PLA2 and PLC

## COc1ccc2c(c1)c(CC(=O)O)c(C)n2C(=O)c1ccc(Cl)cc1 [indomethacin]
[15]
  effects on neuropathological progression: no effects on neuropathological progression were noted
  reducing symptomatic progression in AD patients: allegedly useful in reducing symptomatic progression

## O=C(CBr)c1ccc(Br)cc1 [p-Bromophenacyl Bromide]
[5]
  Emax: 39%
[12]
  CC50 at 72 h: 10 µM
[13]
  TD10 (concentration giving 10% loss of neuronal survival): 8 µM
